# Test results reported in patent US8298781B2, “Compositions and methods for characterizing and regulating olfactory sensation” (Duke University, priority 2007, dated 2012).
# Substitutions are numbered along the chain they refer to.
# Tests used:
# Format in all cases: cell-based
# OR7D4 P79L = molecular target: T1, OR7D4 P79L (Homo sapiens, UniProt Q8NG98, P79L); experiment: Luciferase assay dose response, OR7D4 P79L; conditions: all concentrations tested
# T1 construct: expressed in transfected cells; host or cells: Hana3A (HEK293T-derived)
# T1 sequence (Q8NG98 1-312 P79L): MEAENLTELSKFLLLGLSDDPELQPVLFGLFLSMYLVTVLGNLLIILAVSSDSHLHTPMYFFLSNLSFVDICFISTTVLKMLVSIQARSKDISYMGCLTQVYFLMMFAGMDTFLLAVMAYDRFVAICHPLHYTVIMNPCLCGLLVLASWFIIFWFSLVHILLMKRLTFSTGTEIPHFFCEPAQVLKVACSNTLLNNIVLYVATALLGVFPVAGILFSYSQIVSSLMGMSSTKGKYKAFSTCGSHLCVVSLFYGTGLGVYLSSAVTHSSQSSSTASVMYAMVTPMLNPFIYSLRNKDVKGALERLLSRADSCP
# Text: (§1) Heterologous expression of human odorant receptors. 423 human odorant receptors including 337 predicted functional receptors were cloned. Odorant receptors that contained the first 20 amino acid of human rhodopsin (see, e.g., Krautwurst, D., et al., Cell 95, 917-926 (1998); herein incorporated by reference in its entirety) in pCl (Promega) were expressed in the Hana3A cell line along with a short form of mRTP1, RTP1S, (M37 to the C-terminal end), which enhanced functional expression of the odorant receptors. For immunocytochemistry, cells were fixed, permeabilized and incubated with monoclonal anti-rhodopsin antibody, 4D2 (see, e.g., Laird, D. W., et al., Invest Opthalmol Vis Sci 29.419428 (1988); herein incorporated by reference in its entirety), followed by Cy3-conjugated donkey anti-mouse IgG (Jackson Immunologicals). […]
# (§2) Luciferase assay and data analysis. […] Luminescence was measured using Wallac Victor 1420 (Perkin-Elmer). Normalized luciferase activity was calculated by the formula [luc(N)-luc(lowest)]/luc(highest)/RL (N) where luc(N)=luminescence of luciferase of a certain well; luc(lowest)=lowest luminescence of luciferase of a plate or a set of plates; luc(highest)=highest luminescence of luciferase of a plate or a set of plates; RL(N)=luminescence of Renilla luciferase of a certain well. Data was analyzed with Microsoft Excel and GraphPad Prism 4.
# OR7D4 WM = molecular target: T2, OR7D4 WM (Homo sapiens, UniProt Q8NG98, R88W/T133M); experiment: Luciferase assay of odorant receptor activation in Hana3A cells, OR7D4 WM; conditions: variant R88W/T133M, relative to OR7D4 RT
# T2 construct: expressed in transfected cells; host or cells: Hana3A (HEK293T-derived)
# T2 sequence (Q8NG98 1-312 R88W/T133M): T1 sequence (Q8NG98 1-312 P79L) with L79P, R88W, T133M
# Text: as §1, §2
# OR7D4 S84N = molecular target: T3, OR7D4 S84N (Homo sapiens, UniProt Q8NG98, S84N); experiment: Luciferase assay dose response, OR7D4 S84N; conditions: exceeding the activity of RT variant at every concentration tested
# T3 sequence (Q8NG98 1-312 S84N): T1 sequence (Q8NG98 1-312 P79L) with L79P, S84N
# Text: as §1, §2
# OR7D4 RT = molecular target: T4, OR7D4 RT (Homo sapiens, UniProt Q8NG98); experiment: Luciferase assay of odorant receptor activation in Hana3A cells, OR7D4 RT; parameters: dose or concentration left out as unconfirmed; conditions: for response of OR7D4 RT (normalized luciferase), ligand specificity panel: panel of 66 odors and 2 solvents at or 1,130,000 dilution
# T4 construct: expressed in transfected cells; host or cells: Hana3A (HEK293T-derived)
# T4 sequence (Q8NG98 1-312): T1 sequence (Q8NG98 1-312 P79L) with L79P
# Text: as §1, with “Immunologicals). For FACS analysis, PE-conjugated donkey anti-mouse IgG (Jackson Immunologicals) was used. Western blot analysis was performed according to Mini-Protean 2 Cell (Bio-Rad) protocol. ECL (Amersham) was used for detecting proteins on membranes. After the initial exposure, the membrane was incubated with stripping buffer (25 mM Glycine-HCl [pH2], 1% SDS, 25 mM Glycine, 0.036N HCl, 1% SDS) and incubated with rabbit anti-GFP (Invitrogen). Luciferase assays were performed as described (see, e.g., Saito, H., et al., Cell 119:679-691 (2004); incorporated herein by reference in its entirety).” for “Immunologicals).”
# as §2
Structure (SMILES),dose-response function of OR7D4 P79L in vitro (OR7D4 P79L),function of OR7D4 WM in vitro in the presence of the odor (OR7D4 WM),dose-response sensitivity of OR7D4 S84N in vitro (OR7D4 S84N),"response of OR7D4 RT (normalized luciferase), ligand specificity panel (OR7D4 RT)","response of OR7D4 in screen of human odorant receptor panel (OR7D4 RT; Hana3A cells, 337 human odorant receptors, stimulated with androstenone)"
"C[C@@]12C=CC[C@H]1[C@@H]1CCC3=CC(=O)CC[C@]3(C)[C@H]1CC2 [androstadienone, androsta-4,16-dien-3-one]",severely impaired function,severely impaired olfactory function,remarkable sensitivity,responded selectively,
"C[C@]12CCC(=O)C[C@@H]1CC[C@@H]1[C@@H]2CC[C@]2(C)C=CC[C@@H]12 [androstenone, 5α-androst-16-en-3-one]",severely impaired function,severely impaired olfactory function,remarkable sensitivity,responded selectively,robust responses
